In ChEMBL document CHEMBL3885861, “Open TG-GATES”:

Species on record: Rattus norvegicus
Assay: Open TG-GATES - Regimen: Single
Format: toxicity, organism-based, Sprague-Dawley
Set-up: regimen Single, gender Male, age 6 weeks
Conditions: in vivo, iv, 40 mg/kg, route intravenous injection, dose level Middle; for APTT / Bas / Eos / Fbg / Hb / Ht / Lym / MCH / MCHC / MCV / Mono / Neu / PT / Plat / RBC / Ret / WBC: tissue Blood; for KIDNEY_L / KIDNEY_R / KIDNEY_TOTAL: tissue Kidney; for LIVER: tissue Liver; for A/G / ALP / ALT / AST / BUN / CRE / Ca / Cl / DBIL / GLC / IP / K / LDH / Na / PL / RALB / TBIL / TC / TG / TP / gamma-GTP: tissue Plasma

CN(C)c1ncnc2c1ncn2[C@@H]1O[C@H](CO)[C@@H](N)[C@H]1O [PUROMYCIN AMINONUCLEOSIDE]
TERMINAL_BW (3 h): 219 g
APTT (3 h): 21.1 s
Bas (3 h): 0%
Eos (3 h): 0.4%
Fbg (3 h): 283.6 mg/dL
Hb (3 h): 12.7 g/dL
Ht (3 h): 38%
Lym (3 h): 55.6%
MCH (3 h): 21.2 pg
MCHC (3 h): 33.6%
MCV (3 h): 63.3 fL
Mono (3 h): 4.2%
Neu (3 h): 38%
PT (3 h): 16.2 s
Plat (3 h): 115.8 x10_4/uL
RBC (3 h): 600.8 x10_4/ul
Ret (3 h): 6.9%
WBC (3 h): 148.2 x10_2/uL
KIDNEY_L (3 h): 0.9 g
KIDNEY_R (3 h): 1 g
KIDNEY_TOTAL (3 h): 1.9 g
LIVER (3 h): 9.9 g
A/G (3 h): 1.2
ALP (3 h): 1624.6 IU/L
ALT (3 h): 39.2 IU/L
AST (3 h): 74 IU/L
BUN (3 h): 14.2 mg/dL
CRE (3 h): 0.2 mg/dL
Ca (3 h): 11.2 mg/dL
Cl (3 h): 105 meq/L
DBIL (3 h): 0.002 mg/dL
GLC (3 h): 177 mg/dL
IP (3 h): 8 mg/dL
K (3 h): 4.3 meq/L
LDH (3 h): 163.4 IU/L
Na (3 h): 140.6 meq/L
PL (3 h): 149 mg/dL
RALB (3 h): 2.9 g/dL
TBIL (3 h): 0.014 mg/dL
TC (3 h): 76.2 mg/dL
TG (3 h): 127.8 mg/dL
TP (3 h): 5.3 g/dL
gamma-GTP (3 h): 1 IU/L
TERMINAL_BW (6 h): 216.4 g
APTT (6 h): 22.5 s
Bas (6 h): 0%
Eos (6 h): 0.6%
Fbg (6 h): 317.6 mg/dL
Hb (6 h): 13 g/dL
Ht (6 h): 39%
Lym (6 h): 57.2%
MCH (6 h): 21 pg
MCHC (6 h): 33.5%
MCV (6 h): 62.8 fL
Mono (6 h): 3.4%
Neu (6 h): 37.8%
PT (6 h): 15.6 s
Plat (6 h): 134.5 x10_4/uL
RBC (6 h): 620.8 x10_4/ul
Ret (6 h): 6.9%
WBC (6 h): 125.7 x10_2/uL
KIDNEY_L (6 h): 1 g
KIDNEY_R (6 h): 1 g
KIDNEY_TOTAL (6 h): 1.9 g
LIVER (6 h): 9.6 g
A/G (6 h): 1.3
ALP (6 h): 1345.2 IU/L
ALT (6 h): 38.2 IU/L
AST (6 h): 68.6 IU/L
BUN (6 h): 12.8 mg/dL
CRE (6 h): 0.1 mg/dL
Ca (6 h): 11.2 mg/dL
Cl (6 h): 104.2 meq/L
DBIL (6 h): 0 mg/dL
GLC (6 h): 175.2 mg/dL
IP (6 h): 9.6 mg/dL
K (6 h): 4.3 meq/L
LDH (6 h): 166.6 IU/L
Na (6 h): 139.2 meq/L
PL (6 h): 149.2 mg/dL
RALB (6 h): 3 g/dL
TBIL (6 h): 0.024 mg/dL
TC (6 h): 78.4 mg/dL
TG (6 h): 81.6 mg/dL
TP (6 h): 5.4 g/dL
gamma-GTP (6 h): 1.2 IU/L
TERMINAL_BW (9 h): 210.8 g
APTT (9 h): 21.5 s
Bas (9 h): 0%
Eos (9 h): 1%
Fbg (9 h): 315.4 mg/dL
Hb (9 h): 13 g/dL
Ht (9 h): 38.9%
Lym (9 h): 62%
MCH (9 h): 20.6 pg
MCHC (9 h): 33.4%
MCV (9 h): 61.7 fL
Mono (9 h): 2.2%
Neu (9 h): 34.6%
PT (9 h): 15.9 s
Plat (9 h): 132.8 x10_4/uL
RBC (9 h): 631.6 x10_4/ul
Ret (9 h): 7.2%
WBC (9 h): 96.5 x10_2/uL
KIDNEY_L (9 h): 0.9 g
KIDNEY_R (9 h): 0.9 g
KIDNEY_TOTAL (9 h): 1.9 g
LIVER (9 h): 8.7 g
A/G (9 h): 1.3
ALP (9 h): 1104.4 IU/L
ALT (9 h): 35.8 IU/L
AST (9 h): 67 IU/L
BUN (9 h): 12.6 mg/dL
CRE (9 h): 0.1 mg/dL
Ca (9 h): 11.1 mg/dL
Cl (9 h): 104.2 meq/L
DBIL (9 h): 0.002 mg/dL
GLC (9 h): 176.6 mg/dL
IP (9 h): 10.3 mg/dL
K (9 h): 4.6 meq/L
LDH (9 h): 146 IU/L
Na (9 h): 139.6 meq/L
PL (9 h): 145.4 mg/dL
RALB (9 h): 3.1 g/dL
TBIL (9 h): 0.024 mg/dL
TC (9 h): 76.4 mg/dL
TG (9 h): 103.8 mg/dL
TP (9 h): 5.5 g/dL
gamma-GTP (9 h): 1.6 IU/L
TERMINAL_BW (24 h): 217.2 g
APTT (24 h): 20.8 s
Bas (24 h): 0%
Eos (24 h): 0.8%
Fbg (24 h): 315.4 mg/dL
Hb (24 h): 13 g/dL
Ht (24 h): 37.9%
Lym (24 h): 85%
MCH (24 h): 21.3 pg
MCHC (24 h): 34.3%
MCV (24 h): 62 fL
Mono (24 h): 3%
Neu (24 h): 10.2%
PT (24 h): 15.9 s
Plat (24 h): 116 x10_4/uL
RBC (24 h): 613.4 x10_4/ul
Ret (24 h): 6%
WBC (24 h): 71.4 x10_2/uL
KIDNEY_L (24 h): 1 g
KIDNEY_R (24 h): 1 g
KIDNEY_TOTAL (24 h): 2 g
LIVER (24 h): 9.9 g
A/G (24 h): 1.3
ALP (24 h): 1315 IU/L
ALT (24 h): 46 IU/L
AST (24 h): 73 IU/L
BUN (24 h): 19.6 mg/dL
CRE (24 h): 0.2 mg/dL
Ca (24 h): 11.4 mg/dL
Cl (24 h): 103.2 meq/L
DBIL (24 h): 0.002 mg/dL
GLC (24 h): 179.2 mg/dL
IP (24 h): 10 mg/dL
K (24 h): 4.5 meq/L
LDH (24 h): 186.2 IU/L
Na (24 h): 140.6 meq/L
PL (24 h): 142 mg/dL
RALB (24 h): 3.1 g/dL
TBIL (24 h): 0.016 mg/dL
TC (24 h): 75 mg/dL
TG (24 h): 89.4 mg/dL
TP (24 h): 5.6 g/dL
gamma-GTP (24 h): 1.6 IU/L
